Test results taken from patent publication US10638756B2, “Molecules having pesticidal utility, and intermediates, compositions, and processes, related thereto” (Dow AgroSciences LLC, priority 2017, dated 2020).

What was measured:
[1] = tested on: Beet Armyworm (Spodoptera exigua); experiment: Bioassay on Beet Armyworm (BAW), 128-well diet tray assay; type: in vivo; conditions: Spodoptera exigua, 168 h; 50 μg/cm^2 on artificial diet, second instar larvae, five to seven days; read-out: BAW % Control (or Mortality) rating
[2] = tested on: Cabbage Looper (Trichoplusia ni); experiment: Bioassay on Cabbage Looper (CL), 128-well diet tray assay; type: in vivo; conditions: 168 h, 50 μg/cm^2 on artificial diet, second instar larvae, five to seven days, read-out: CL % Control (or Mortality) rating
How it was run: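 Diet tray, 2nd instar, 1–5 larvae/well; 50 μg/cm^2 compound surface-applied (acetone:water 90:10), dried; 8 wells/treatment; 25° C, 14:10 L:D, 5–7 d; % mortality, mean of 8 wells.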

Structure (SMILES) | mortality at 50 µg/cm2 [1] | mortality at 50 µg/cm2 [2]
CN(NC(=O)c1ccc(/C(F)=C/C(c2ccc(OC(F)(F)F)c(Cl)c2)C(F)(F)F)cc1C(F)(F)F)c1ccccn1 (centres unmarked) [F107, (Z)-4-(3-(3-Chloro-4-(trifluoromethoxy)phenyl)-1,4,4,4-tetrafluorobut-1-en-1-yl)-N′-methyl-N′-(pyridin-2-yl)-2-(trifluoromethyl)benzohydrazide] | 50 to 100% | 50 to 100%
O=C(NNC1CCCC1)c1ccc(/C(F)=C/C(c2cc(Cl)c(Cl)c(Cl)c2)C(F)(F)F)cc1C(F)(F)F (centres unmarked) [F110, (Z)—N′-Cyclopentyl-4-(1,4,4,4-tetrafluoro-3-(3,4,5-trichlorophenyl)but-1-en-1-yl)-2-(trifluoromethyl)benzohydrazide] | 50 to 100% | 50 to 100%
NN(C(=O)c1ccc(/C(F)=C/C(c2cc(Cl)c(Cl)c(Cl)c2)C(F)(F)F)cc1C(F)(F)F)C1CC1 (centres unmarked) [F112, (Z)—N-Cyclopropyl-4-(1,4,4,4-tetrafluoro-3-(3,4,5-trichlorophenyl)but-1-en-1-yl)-2-(trifluoromethyl)benzohydrazide] | 50 to 100% | 50 to 100%
CN(NC(=O)c1ccc(/C(F)=C/C(c2ccc(F)c(C(F)(F)F)c2)C(F)(F)F)cc1C(F)(F)F)c1ncccn1 (centres unmarked) [F113, (Z)—N′-Methyl-N′-(pyrimidin-2-yl)-4-(1,4,4,4-tetrafluoro-3-(4-fluoro-3-(trifluoromethyl)phenyl)but-1-en-1-yl)-2-(trifluoromethyl)benzohydrazide] | 50 to 100% | 50 to 100%
O=C(NNc1ncc(F)cn1)c1ccc(/C(F)=C/C(c2cc(Cl)c(Cl)c(Cl)c2)C(F)(F)F)cc1C(F)(F)F (centres unmarked) [F114, (Z)—N′-(5-Fluoropyrimidin-2-yl)-4-(1,4,4,4-tetrafluoro-3-(3,4,5-trichlorophenyl)but-1-en-1-yl)-2-(trifluoromethyl)benzohydrazide] | 50 to 100% | 50 to 100%
O=C(NNC1=NCCN1)c1ccc(/C(F)=C/C(c2cc(Cl)c(Cl)c(Cl)c2)C(F)(F)F)cc1C(F)(F)F (centres unmarked) [F116, (Z)—N′-(4,5-Dihydro-1H-imidazol-2-yl)-4-(1,4,4,4-tetrafluoro-3-(3,4,5-trichlorophenyl)but-1-en-1-yl)-2-(trifluoromethyl)benzohydrazide] | 50 to 100% | 50 to 100%
O=C(NNc1ccccc1[N+](=O)[O-])c1ccc(/C(F)=C/C(c2cc(Cl)c(Cl)c(Cl)c2)C(F)(F)F)cc1C(F)(F)F (centres unmarked) [F118, (Z)—N′-(2-nitrophenyl)-4-(1,4,4,4-tetrafluoro-3-(3,4,5-trichlorophenyl)but-1-en-1-yl)-2-(trifluoromethyl)benzohydrazide] | 50 to 100% | 50 to 100%
O=C(NNc1cccnc1)c1ccc(/C(F)=C/C(c2cc(Cl)c(Cl)c(Cl)c2)C(F)(F)F)cc1C(F)(F)F (centres unmarked) [F121, (Z)—N′-(Pyridin-3-yl)-4-(1,4,4,4-tetrafluoro-3-(3,4,5-trichlorophenyl)but-1-en-1-yl)-2-(trifluoromethyl)benzohydrazide] | 50 to 100% | 50 to 100%
CN(NC(=O)c1ccc(/C(F)=C/C(c2cc(Br)c(F)c(Br)c2)C(F)(F)F)cc1C(F)(F)F)c1ccccc1 (centres unmarked) [F123, (Z)-4-(3-(3,5-Dibromo-4-fluorophenyl)-1,4,4,4-tetrafluorobut-1-en-1-yl)-N′-methyl-N′-phenyl-2-(trifluoromethyl)benzohydrazide] | 50 to 100% | 50 to 100%
CN(NC(=O)c1ccc(/C(F)=C/C(c2ccc(Br)c(Cl)c2)C(F)(F)F)cc1C(F)(F)F)c1ncccn1 (centres unmarked) [F125, (Z)-4-(3-(4-Bromo-3-chlorophenyl)-1,4,4,4-tetrafluorobut-1-en-1-yl)-N′-methyl-N′-(pyrimidin-2-yl)-2-(trifluoromethyl)benzohydrazide] | 50 to 100% | 50 to 100%
